{
  "source": "patent US20080214506A1",
  "about": "“Novel use of ion channel active compound, meperidine, to mediate process of accelerated wound healing” (priority 2002, published 2008)",
  "system": "surgical wound",
  "assay": "meperidine subcutaneous infiltration as local anesthetic in exodontia and oral surgery, clinical observation over five years",
  "settings": "for blood loss per case: used as the local anesthetic",
  "description": "Normal healing after surgical and third molar procedures can result in painful sequelae up to 14 days after surgery, which frequently require after-hour intervention by the surgeon. Among these sequelae are localized osteotitis (dry socket), trismus, facial edema, and protracted bleeding. For the purposes of this invention, the definition of “healed extraction site” will be a surgical wound that presents as normal clinical dental ridge architecture with pink gingival tissue and without classic granulation tissue, erythema, or edema.\nFor subcutaneous injection buccal or labial to extraction sites, meperidine is delivered in a standard insulin syringe pre-loaded with 40 mg meperidine in preservative-free solution (available as 1 cc (100 mg) ampules or 1 cc (100 mg) multidose vials). […] Consequently, early on, the use of meperidine for oral surgery was standardized as preservative-free and limited to low doses of 5-20 mg per extraction site with a maximum of 120 mg for any one individual. […] The surgical procedure also involves the concurrent use of intravenous barbituates (hexibarbitol), 0.2 mg atropine, 2 mg dexarnethasone, and concurrent use of 100% oxygen. Nitrous oxide, 20-40%, may be used intermittently during the case to assist the phobic dental patient through the procedure. Additionally each patient is encouraged to take orally 2000 units of vitamin C (adult dose) the day before surgery and 2000 units per day for 5 days postoperatively. […] (A thiophene local anesthetic has been used on rare occasions.)\nThe infiltration process usually includes 5-15 mg in the dental sulcus with 2-3 mg infused in the attached gingiva. No periodontal ligament or intraosseous injection of meperidine is used.",
  "key": {"[1]": {"settings": "healed extraction site, injection during surgery, five year period"}},
  "data": [
    {"smiles": "Nc1ccccc1", "note": "[aminobenzene]", "values": [
      {"measurement": "blood loss per case", "setting": "four impacted third molars", "value": "70-150 cc"}
    ]},
    {"smiles": "CCOC(=O)C1(c2ccccc2)CCN(C)CC1", "note": "[meperidine]", "values": [
      {"measurement": "cases presenting with pink surgical site tissue including the mucoperiostial flap", "setting": "3-4 days post surgery", "value": "60-80%"},
      {"measurement": "post-operative bleeding or wound management problems", "setting": "10 months, April 2001 through February 2002, prophylactic antibiotics not always used", "value": "No post-operative bleeding or wound management problems developed"},
      {"measurement": "patients healed before day 5 postoperatively", "setting": "before the dry socket can occur", "value": 80, "unit": "%"},
      {"measurement": "time after injection at which rapid clotting is seen", "setting": "during surgery", "value": "three"},
      {"measurement": "time for extraction socket to form a complete clot with no further bleeding", "setting": "during surgery", "value": "2 to 5", "unit": "min"},
      {"measurement": "blood loss per case, rarely went over", "setting": "four impacted third molars", "value": "≤ 20", "unit": "cc"},
      {"measurement": "blood loss per case", "setting": "four impacted third molars", "value": "2-10 cc"},
      {"measurement": "patients in whom healing occurred in 3-4 days", "setting": "[1]", "value": 80, "unit": "%"},
      {"measurement": "patients in whom healing occurred in 5-10 days", "setting": "[1]", "value": 5, "unit": "%"},
      {"measurement": "patients in whom healing occurred in 1 day", "setting": "[1]", "value": 15, "unit": "%"},
      {"measurement": "intraoperatively cardiac monitored arrythmias", "setting": "human, in vivo", "value": "disappeared"},
      {"measurement": "laryngiospasms requiring muscle paralyzing agents", "setting": "human, in vivo", "value": "not experienced"},
      {"measurement": "paresthesia", "setting": "human, in vivo", "value": "can occur"},
      {"measurement": "clinical numbness", "setting": "immediate postoperative, infiltration", "value": "without any marked clinical numbness"},
      {"measurement": "post-operative infections", "setting": "in 5 years", "value": "no post-operative infections"},
      {"measurement": "trismus or temeromandibular joint dysfunction requiring physical therapy", "setting": "in 5 years", "value": "no cases"},
      {"measurement": "relief of oral surgical pain from extractions", "setting": "infiltrated subcutaneously buccal or labial to extraction site", "value": "clinically relieve oral surgical pain"},
      {"measurement": "dry sockets", "setting": "over 5 years", "value": "disappeared from the practice"},
      {"measurement": "time after suturing until clotting satisfactory for discharge", "setting": "patient with a factor deficiency disease", "value": 15, "unit": "min"},
      {"measurement": "tissue reaction observed clinically", "setting": "solution containing a preservative, subcutaneous injection at extraction sites", "value": "excessive facial edema and tissue necrosis"},
      {"measurement": "nausea", "setting": "total body dose under 120 mg", "value": "rare"}
    ]}
  ]
}
